Test results published in patent publication US20050043341A1, “3-'Hydroxy-(-4-trifluoromethylphenyl)-methyl-7-spirocyclobutyl-5,6,7 8-tetrahydroquinolin-5-ol derivatives and the use of the same as cholesterol ester transfer protein (cetp) inhibitors” (priority 2001, published 2005).

What was measured:
[1] = target: T1, CETP (Homo sapiens, UniProt P11597); assay: CETP fluorescence test; format: biochemical; details: CETP from human plasma, 37° C., 4 hours; read-out: IC50 (nM) Fluor. test
T1 construct: CETP is obtained in partially purified form from human plasma; from tissue; host or cells: human plasma
T1 sequence (P11597 18-493): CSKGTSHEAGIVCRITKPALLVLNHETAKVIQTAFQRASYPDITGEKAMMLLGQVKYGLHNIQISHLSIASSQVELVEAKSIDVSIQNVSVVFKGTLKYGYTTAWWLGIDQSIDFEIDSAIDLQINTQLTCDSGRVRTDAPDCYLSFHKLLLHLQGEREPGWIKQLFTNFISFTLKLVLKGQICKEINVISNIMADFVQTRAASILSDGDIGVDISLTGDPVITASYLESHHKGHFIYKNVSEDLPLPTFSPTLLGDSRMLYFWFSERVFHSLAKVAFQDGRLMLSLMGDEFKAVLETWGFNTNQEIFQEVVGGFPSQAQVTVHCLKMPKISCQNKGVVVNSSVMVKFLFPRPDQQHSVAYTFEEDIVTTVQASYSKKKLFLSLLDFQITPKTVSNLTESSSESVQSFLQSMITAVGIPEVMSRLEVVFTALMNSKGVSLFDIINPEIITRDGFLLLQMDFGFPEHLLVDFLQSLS
Procedure: CETP is obtained in partially purified form from human plasma by differential centrifugation and column chromatography and used for the test. To this end, human plasma is adjusted to a density of 1.21 g per ml using NaBr and centrifuged at 4° C. at 50000 rpm for 18 h. The bottom fraction (d>1.21 g/ml) is applied to a Sephadex® Phenyl-Sepharose 4B (Pharmacia) column, washed with 0.15 M NaCl/0.001 M tris HCl pH 7.4 and then eluted with dist. water. Die CETP-active fractions are pooled, dialysed against 50 mM Na acetate pH 4.5 and applied to a CM-Sepharose® (Pharmacia) column. The mixture is then eluted using a linear gradient (0-1 M NaCl). The pooled CETP fractions are dialysed against 10 mM TrisHCl pH 7.4 and then further purified by chromatography on a Mono Q® column (Pharmacia).
Measurement of the CETP-catalysed transfer of a fluorescent cholesterol ester between liposomes—modified according to the procedure of Bisgaier et al., J. Lipid Res. 34, 1625 (1993).
For the production of the donor liposomes, 1 mg of cholesteryl 4,4-difluoro-5,7-dimethyl-4-bora-3a,4a-diaza-s-indacene-3-dodecanoate (cholesteryl BODIPY® FL C12, Molecular Probes) is dissolved in 600 μl of dioxane with 5.35 mg of triolein and 6.67 mg of phosphatidylcholine with gentle warming in an ultrasonic bath and this solution is added very slowly with ultrasonication to 63 ml of 50 mM tris/HCl, 150 mM NaCl, 2 mM EDTA buffer pH 7.3 at RT.
The suspension is then ultrasonicated under an N2 atmosphere for 30 minutes in the Braukson ultrasonic bath at about 50 watts, the temperature being kept at about 20° C.
The acceptor liposomes are obtained analogously from 86 mg of cholesteryl oleate, 20 mg of triolein and 100 mg of phosphatidylcholine dissolved in 1.2 ml of dioxane and 114 ml of above buffer by ultrasonication at 50 watts (20° C.) for 30 minutes.
For testing, a test mix consisting of 1 part of above buffer, 1 part of donor liposomes and 2 parts of acceptor liposomes is used.
80 μl of test mix are treated with 1-3 μg of enriched CETP fraction, obtained from human plasma by means of hydrophobic chromatography, and 2 μl of the substance to be investigated in DMSO and incubated at 37° C. for 4 hours.
The change in the fluorescence at 485/535 nm is a measure of the CE transfer; the inhibition of the transfer in comparison to the control batch without substance is determined.

[2] = tested on: Syrian golden hamsters; assay: In vivo activity in Syrian golden hamsters (HDL cholesterol); details: perorally
Procedure: In experiments for the determination of the oral action on lipoproteins and triglycerides, test substance dissolved in DMSO and 0.5% suspended in Tylose are administered perorally by means of a stomach tube to Syrian golden hamsters bred in-house. For the determination of the CETP activity, before the start of the experiment blood is taken by retro-orbital puncture (about 250 μl). The test substances are then administered perorally by means of a stomach tube. The control animals receive identical volumes of solvent without test substance. The feed is then withdrawn from the animals and blood is taken at various times—up to 24 hours after substance administration—by puncture of the retroorbital venous plexus.
Clotting is terminated by incubation at 4° C. overnight, then centrifugation is carried out for 10 minutes at 6000×g. The content of cholesterol and triglycerides in the serum thus obtained is determined with the aid of modified commercially obtainable enzymatic tests (Ecoline 25 Cholesterol 1.14830.0001 Merck Diagnostica, Ecoline 25 Triglycerides 1.14856.0001 Merck Diagnostica). Serum is suitably diluted using physiological saline solution.
10 μl of serum dilution are treated with 200 μl of Ecoline 25 reagent in 96-hole plates and incubated for 10 minutes at room temperature. The optical density is then determined at a wavelength of 490 nm using an automatic plate reader. The triglyceride or cholesterol concentration contained in the samples is determined with the aid of a standard curve measured in parallel.
The determination of the content of HDL cholesterol is carried out after precipitation of the ApoB-containing lipoproteins (Sigma 352-4 HDL cholesterol reagent) according to the manufacturer's instructions.

[3] = tested on: transgenic hCETP mice; assay: In vivo activity in transgenic hCETP mice (HDL); details: stomach tube
Procedure: In experiments for the determination of the oral action on lipoproteins and triglycerides, test substance is administered to transgenic mice using a stomach tube (Dinchuck, Hart, Gonzalez, Karmann, Schmidt, Wirak; BBA (1995), 1295, 301). Before the start of the experiment, blood is taken from the mice retroorbitally in order to determine cholesterol and triglycerides in the serum. The serum is obtained as described above for hamsters by incubation at 4° C. overnight and subsequent centrifugation at 6000×g. […] The change in the parameters measured is expressed as the percentage change compared with the starting value.

Row | IC50 [1] [nM] | SMILES | % HDL increase after 24 h (Dose: 2 × 10 mg/kg) [2] [%] | % HDL increase after 4 d (Dose: 4 × 10 mg/kg) [3] [%]
1 | 30 | CC(C)c1nc2c(c(-c3cccs3)c1[C@@H](O)c1ccc(C(F)(F)F)cc1)[C@@H](O)CC1(CCC1)C2 [Example 61, (5S)-2-Isopropyl-4-(2-thienyl)-3-[(S)-hydroxy-(4-trifluoromethylphenyl)-methyl]-7-spirocyclobutyl-5,6,7,8-tetrahydroquinolin-5-ol] | – | –
2 | 30 | CC(C)c1nc2c(c(-c3ccccc3)c1[C@@H](O)c1ccc(C(F)(F)F)cc1)[C@@H](O)CC1(CCC1)C2 [Example 53, (5S)-2-Isopropyl-4-phenyl-3-[(S)-hydroxy-(4-trifluoromethylphenyl)-methyl]-7-spirocyclobutyl-5,6,7,8-tetrahydroquinolin-5-ol] | 19 | –
3 | 12 | CC(C)c1nc2c(c(-c3ccc(F)cc3)c1[C@@H](O)c1ccc(C(F)(F)F)cc1)[C@@H](O)CC1(CCC1)C2 [Example 51, (5S)-2-Isopropyl-4-(4-fluorophenyl)-3-[(S)-hydroxy-(4-trifluoromethylphenyl)-methyl]-7-spirocyclobutyl-5,6,7,8-tetrahydroquinolin-5-ol] | 17 | 57
